US20070197657A1, “Method for treating non-inflammatory musculoskeletal pain” (SRZ Properties, Inc., priority 2005, published 2007)
“Also recorded” adds a separate entry of the source.

Experiments:
[1] = test system: muscle pressure hyperalgesia induced by TNF; test: TNF-induced muscle pressure hyperalgesia (Randall-Selitto, gastrocnemius muscle); format: in vivo, rat; settings: for reversal of muscular mechanical hyperalgesia (withdrawal threshold to muscle pressure): TNF 1 μg i.m. gastrocnemius; for full reversal of the muscle hyperalgesia: doses tested (pregabalin 30, 100 mg/kg; gabapentin 100 mg/kg i.p.)
Description: (§1) The model used in this example is applicable to musculoskeletal pain which occurs in fibromyalgia, myofascial pain syndrome or back pain. For comparative purposes, the non-opioid analgesic dipyrone (metamizol) and the anticonvulsants pregabalin and gabapentin were included in the study.
(§2) Adult male Sprague Dawley rats with a body weight of 250 g to 300 g were used (supplier: Charles River, Sulzfeld, Germany). Animals were group-housed (3 animals per cage) and maintained in a room with controlled temperature (21-22° C.) and a reversed light-dark cycle (12 h/12 h) with food and water available ad libitum. All experiments were approved by the Bavarian State animal experimentation committee and carried out in accordance with its regulations.
(§3) Recombinant rat tumor necrosis factor alpha (herein referred to as TNF) was obtained from R&D Systems, Minneapolis, Minn., U.S.A. TNF was diluted in 0.9% NaCl and used in a concentration of 1 μg in 50 μl. Injections were performed in short halothane narcosis with a 30 g needle bilaterally into the gastrocnemius or into the biceps brachii muscle. All rats were used to the behavioral tests before injections and baseline values were recorded over three test days.
Mechanical withdrawal thresholds to muscle pressure were measured with an analgesimeter (Ugo Basile, Comerio, Italy). The rat was allowed to crawl into a sock which helps the rat to relax. The hind limbs were positioned such that an increasing pressure could be applied onto the gastrocnemius muscle (maximum 250 g). The pressure needed to elicit withdrawal was recorded. Means of 3 trials for each hind limb were calculated (interstimulus interval of >30 sec). Only animals with a significant TNF effect were included for further analysis.
Rats were injected with TNF into the gastrocnemius muscle at 2 pm. Eighteen hours later, rats were tested for pressure hyperalgesia pre- and post-administration of the test drug. Rats were tested for pressure hyperalgesia 30 to 60 minutes after drug administration.
(§4) The rats, initially 10 per group, were treated with either 3, 10 or 30 mg/kg lacosamide, 2 mg/kg metamizol, 30 or 100 mg/kg pregabalin, 100 mg/kg gabapentin, or the NaCl vehicle, i.p. (intraperitoneally). Volume of i.p. injections was 0.5 ml. A pilot study was performed to confirm that i.m. (intramuscular) injection of 1 μg TNF into the gastrocnemius muscle was sufficient to induce pressure hyperalgesia.
(§5) Data are shown in graphs displaying means and standard errors of the means (SEM). Pre- and post-treatment data were compared using ANOVA (analysis of variance) and a Tukey post hoc test. Means of treatment groups were compared using a one-way ANOVA and Dunnett's post hoc test. Maximal possible effects (MPE) were calculated for all types of treatment.

[2] = test system: TNF-induced reduction of grip strength; test: biceps muscle grip strength after TNF-induced muscle pain; format: in vivo, rat; settings: for reversal of TNF-induced reduction of grip strength: TNF 1 μg i.m. biceps brachii
Description: as §1, §2, §3
Grip strength of the forelimbs was tested with a digital grip force meter (DFIS series, Chatillon, Greensboro, N.C., U.S.A.). The rat was positioned to grab the grid with the forelimbs and was gently pulled so that the grip strength could be recorded. Means of three trials were calculated. The effect of the TNF treatment was calculated for each animal separately and only animals with a significant TNF effect were included for further analysis.
Rats were injected with TNF into the biceps brachii muscle at 8 am. Six hours later, grip strength of the forelimbs was tested with a digital grip force meter. Test drug was administered, and grip strength was again tested after 30 to 60 minutes.
as §4, §5

[3] = test system: formalin-induced flinching and licking of the affected paw; test: rat formalin paw test (late phase); format: in vivo
Method: Rats were given an intraplantar injection of 5% formalin (50 μl) into the posterior left paw. This treatment induces a recognizable flinching and licking response of the affected paw in control animals. The number of flinches was counted for 15 minutes, beginning 20 minutes after injection of formalin. The time spent licking the affected paw was also recorded.
Male Rj: Wistar (Han) rats, 10 per group, weighing 100-130 g at the beginning of the experiments were studied per group. The test was performed blind.
Lacosamide (20 mg/kg), gabapentin (50 and 100 mg/kg), combinations of lacosamide (20 mg/kg) with gabapentin (50 and 100 mg/kg), and vehicle were administered i.p. 10 minutes before injection of formalin.
Lacosamide (10 and 20 mg/kg), morphine (2 and 4 mg/kg), combinations of lacosamide (10 and 20 mg/kg) with morphine (2 and 4 mg/kg), and vehicle were administered i.p. 10 minutes before injection of formalin.
Lacosamide (10 mg/kg), duloxetine (8 mg/kg), a combination of lacosamide (10 mg/kg) with duloxetine (8 mg/kg), and vehicle were administered i.p. 10 minutes before injection of formalin.
Lacosamide (10 and 20 mg/kg), memantine (4 and 8 mg/kg), combinations of lacosamide (10 and 20 mg/kg) with memantine (4 and 8 mg/kg), and vehicle were administered i.p. 10 minutes before injection of formalin.
Lacosamide (10 and 20 mg/kg), naproxen (8 and 16 mg/kg), combinations of lacosamide (10 and 20 mg/kg) with […] (8 and 16 mg/kg), and vehicle were administered i.p. 10 minutes before injection of formalin. Morphine (8 mg/kg) was included as a comparative treatment.

[4] = test system: monosodium iodoacetate-induced tactile allodynia; test: monosodium iodoacetate-induced tactile allodynia (von Frey filaments); format: in vivo, rat
[5] = test system: monosodium iodoacetate-induced mechanical hyperalgesia; test: monosodium iodoacetate-induced mechanical hyperalgesia (Randall-Selitto paw pressure); format: in vivo, rat; settings: for mechanical hyperalgesia (paw pressure withdrawal threshold) compared to iodoacetate/vehicle treated animals: day 3; for mechanical hyperalgesia (paw pressure withdrawal threshold): day 7
[6] = Example 5, duloxetine 8 mg/kg i.p.
[7] = 3 mg/kg (lacosamide p.o., morphine s.c.)
[8] = Example 4, morphine 2 mg/kg i.p.
[9] = Example 4, morphine 4 mg/kg i.p.
[10] = Example 7, morphine 8 mg/kg i.p.
[11] = Example 3, gabapentin 50 mg/kg i.p.
[12] = Example 3, gabapentin 100 mg/kg i.p.

CC(C)C[C@H](CN)CC(=O)O [pregabalin]
MPE (maximal possible effect) on muscle pressure hyperalgesia, versus vehicle ([1]; 30 mg/kg i.p.): significantly different from vehicle
MPE (maximal possible effect) on muscle pressure hyperalgesia, versus vehicle ([1]; 100 mg/kg i.p.): significantly different from vehicle
reversal of muscular mechanical hyperalgesia (withdrawal threshold to muscle pressure) ([1]; 30 mg/kg i.p.): significant reversal
reversal of muscular mechanical hyperalgesia (withdrawal threshold to muscle pressure) ([1]; 100 mg/kg i.p.): significant reversal
full reversal of the muscle hyperalgesia [1]: Neither pregabalin nor gabapentin led to a full reversal
MPE (maximal possible effect) on biceps muscle grip strength, versus vehicle ([2]; 100 mg/kg i.p.): significantly different from vehicle
reversal of TNF-induced reduction of grip strength ([2]; 100 mg/kg i.p., 100 mg/kg): significant reversal; also recorded: improved grip strength

COc1ccc2cc([C@H](C)C(=O)O)ccc2c1 [Naproxen, naproxen, reference compound]
effect on the number of flinches or the time spent licking as compared with vehicle controls ([3]; Example 7, naproxen 8 and 16 mg/kg i.p.): did not clearly affect

CC12CC3CC(C)(C1)CC(N)(C3)C2 [Memantine, memantine, reference compound]
effect on the number of flinches as compared with vehicle controls ([3]; Example 6, memantine 4 and 8 mg/kg i.p.): did not clearly affect

O=C(O)Cc1ccccc1Nc1c(Cl)cccc1Cl [Diclofenac, diclofenac]
tactile allodynia of iodoacetate-treated rats ([4]; day 3, 30 mg/kg (lacosamide p.o., diclofenac s.c.)): no effect
tactile allodynia of iodoacetate-treated rats ([4]; day 7, 30 mg/kg (lacosamide p.o., diclofenac s.c.)): no effect
tactile allodynia of iodoacetate-treated rats ([4]; day 14, 30 mg/kg (lacosamide p.o., diclofenac s.c.)): no effect
mechanical hyperalgesia (paw pressure withdrawal threshold) compared to iodoacetate/vehicle treated animals ([5]; 30 mg/kg s.c.): increase in paw pressure withdrawal threshold
mechanical hyperalgesia (paw pressure withdrawal threshold) ([5]; 30 mg/kg (lacosamide p.o., diclofenac s.c.)): reduced mechanical hyperalgesia

Cc1c(N(C)CS(=O)(=O)O)c(=O)n(-c2ccccc2)n1C [metamizol]
MPE (maximal possible effect) on muscle pressure hyperalgesia, versus vehicle ([1]; 2 mg/kg i.p.): significantly different from vehicle
reversal of muscular mechanical hyperalgesia (withdrawal threshold to muscle pressure) ([1]; 2 mg/kg i.p.): complete reversal
MPE (maximal possible effect) on biceps muscle grip strength, versus vehicle ([2]; 2 mg/kg i.p.): significantly different from vehicle
reversal of TNF-induced reduction of grip strength ([2]; 2 mg/kg i.p.): significant reversal

CNCC[C@H](Oc1cccc2ccccc12)c1cccs1 [Duloxetine, duloxetine, reference compound]
Licking time % change (a): compared with vehicle control [3, 6]: −26%
Licking time (seconds) mean ± SEM [3, 6]: 195.5 ± 45.0 s
No. of flinches % change (a): compared with vehicle control [3, 6]: −1%
No. of flinches mean ± SEM [3, 6]: 149.6 ± 27.3
effects on number of flinches and time spent licking [3, 6]: no clear effects

CN1CC[C@]23c4c5ccc(O)c4O[C@H]2[C@@H](O)C=C[C@H]3[C@H]1C5 [Morphine, morphine, reference compound]
tactile allodynia of iodoacetate-treated rats ([4]; day 3, 3 mg/kg s.c.): improved
tactile allodynia of iodoacetate-treated rats ([4]; day 7, 3 mg/kg s.c.): improved
tactile allodynia of iodoacetate-treated rats ([4]; day 14, 3 mg/kg s.c.): not on day 14
mechanical hyperalgesia (paw pressure withdrawal threshold) compared to iodoacetate/vehicle treated animals [5, 7]: increase in paw pressure withdrawal threshold
mechanical hyperalgesia (paw pressure withdrawal threshold) [5, 7]: reduced mechanical hyperalgesia
Licking time % change (a): compared with vehicle control [3, 8]: −1%
Licking time (seconds) mean ± SEM [3, 8]: 289.3 ± 30.7 s
No. of flinches % change (a): compared with vehicle control [3, 8]: −7%
No. of flinches mean ± SEM [3, 8]: 139.5 ± 25.3
Licking time % change (a): compared with vehicle control [3, 9]: −20%
Licking time (seconds) mean ± SEM [3, 9]: 234.9 ± 37.3 s
No. of flinches % change (a): compared with vehicle control [3, 9]: −37%
No. of flinches mean ± SEM [3, 9]: 94.3 ± 21.1
effects on the number of flinches and the time spent licking as compared with vehicle controls ([3]; Example 4, morphine 2 and 4 mg/kg i.p.): did not reach statistical significance
Licking time % change (a): compared with vehicle control [3, 10]: −100%
Licking time (seconds) mean ± SEM [3, 10]: 0.0 ± 0.0 s
No. of flinches % change (a): compared with vehicle control [3, 10]: −100%
No. of flinches mean ± SEM [3, 10]: 0.2 ± 0.1
effect on flinching and the time spent licking as compared with vehicle controls [3, 10]: eliminated

NCC1(CC(=O)O)CCCCC1 [Gabapentin, gabapentin, reference compound]
MPE (maximal possible effect) on muscle pressure hyperalgesia, versus vehicle ([1]; 100 mg/kg i.p.): significantly different from vehicle
reversal of muscular mechanical hyperalgesia (withdrawal threshold to muscle pressure) ([1]; 100 mg/kg i.p.): significant reversal
full reversal of the muscle hyperalgesia [1]: Neither pregabalin nor gabapentin led to a full reversal
MPE (maximal possible effect) on biceps muscle grip strength, versus vehicle ([2]; 100 mg/kg i.p.): significantly different from vehicle
reversal of TNF-induced reduction of grip strength ([2]; 100 mg/kg i.p., 100 mg/kg): significant reversal; also recorded: improved grip strength
Licking time % change (a): compared with vehicle control [3, 11]: −28%
Licking time (seconds) mean ± SEM [3, 11]: 161.0 ± 27.3 s
No. of flinches % change (a): compared with vehicle control [3, 11]: −24%
No. of flinches mean ± SEM [3, 11]: 97.4 ± 23.8
decrease in the number of flinches as compared with vehicle controls [3, 11]: 24%
decrease in the time spent licking as compared with vehicle controls [3, 11]: 28%
Licking time % change (a): compared with vehicle control [3, 12]: −60%
Licking time (seconds) mean ± SEM [3, 12]: 90.0 ± 22.5 s
No. of flinches % change (a): compared with vehicle control [3, 12]: −31%
No. of flinches mean ± SEM [3, 12]: 88.1 ± 19.4
decrease in the number of flinches as compared with vehicle controls [3, 12]: 31%
decrease in the time spent licking as compared with vehicle controls [3, 12]: 60%
